Test results reported in patent publication US4853412A, “N-[[6-methoxy-5-(trifluoromethyl)-1-naphthalenyl]-[substituted imino]methyl]-n-methylglycines” (American Home Products Corporation, priority 1987, dated 1989).

How the values were obtained:
[1] = system: sciatic nerves of rats fed galactose; experiment: galactosemic rats: lowering of galactitol (dulcitol) accumulation in the sciatic nerve; assay type: in vivo, rat (Sprague-Dawley); settings: for % lowering dulcitol accumulation in vivo, N (sciatic nerve): four days, vs untreated galactosemic rats
Source text: (§1) The aldose reductase inhibiting property of the compounds of this invention and the utilization of the compounds in preventing, diminishing and alleviating diabetic complications by lowering polyols accumulation are demonstrable in experiments using galactosemic rats, see Dvornik et al, Science, 182, 1146 (1973). Such experiments are exemplified hereinbelow after the listing of the following general comments pertaining to these experiments:
(§2) (a) Four or more groups of six male rats, 50-70 g, Sprague-Dawley strain, were used. The first group, the control group, was fed a mixture of laboratory chow (rodent Laboratory Chow, Purina) and glucose at 20% (w/w %) concentration. The untreated galactosemic group and the drug-treated groups were fed a similar diet in which galactose is substituted for glucose. The test compound was either admixed to the diet or administered by gavage. In experiments involving compound administration in the diet, the average dose administered was calculated from the actual food intake of the animals in each group. The concentration of galactose in the diet of the treated groups was the same as that for the untreated galactosemic group.
(§3) (b) After four days, the animals were killed by decapitation. The eyeballs were removed and punctured with a razor blade; the freed lenses were rolled gently on filter paper and weighed. The sciatic nerves were dissected as completely as possible and weighed. Both tissues when frozen can be kept up to two weeks before being analyzed for galactitol.
(§4) (c) The polyol determination was performed by a modification of the procedure of M. Kraml and L. Cosyns, Clin. Biochem., 2,373 (1969). Only two minor reagent changes were made: (a) The rinsing mixture was an aqueous 5% (w/v) trichloroacetic acid solution and (b) the stock solution was prepared by dissolving 25 mg of dulcitol in 100 mL of an aqueous trichloroacetic acid solution. [N.B.: For each experiment the average value found in the tissue from rats fed the glucose diet was subtracted from the individual values found in the corresponding tissue in galactose-fed rats to obtain the amount of polyol accumulated.] The aldose reductase inhibiting effects of the compounds of formula (I) were also tested by employing an in vitro testing procedure similar to that described by S. Hayman and J. H. Kinoshita, J. Biol. Chem., 240, 877 (1965). In the present case the procedure of Hayman and Kinoshita was modified in that the final chromatography step was omitted in the preparation of the enzyme from bovine lens.
(§5) The figures under L and N represent the percentage decrease of galactitol accumulation in the tissues of the lens and sciatic nerve, respectively, for treated rats as compared to untreated rats.

[2] = system: lenses of rats fed galactose; experiment: galactosemic rats: lowering of galactitol (dulcitol) accumulation in the lens; assay type: in vivo, rat (Sprague-Dawley); settings: four days, vs untreated galactosemic rats
Source text: as §1, §2, §3, §4, §5

[3] = biological target: T1, aldose reductase (Bos taurus, UniProt P16116); experiment: in vitro inhibition of aldose reductase from bovine lens (modified Hayman and Kinoshita procedure); assay type: biochemical; settings: 10^-7 M
T1 construct: preparation of the enzyme from bovine lens; from tissue; host or cells: bovine lens
Method: Only two minor reagent changes were made: (a) The rinsing mixture was an aqueous 5% (w/v) trichloroacetic acid solution and (b) the stock solution was prepared by dissolving 25 mg of dulcitol in 100 mL of an aqueous trichloroacetic acid solution. [N.B.: For each experiment the average value found in the tissue from rats fed the glucose diet was subtracted from the individual values found in the corresponding tissue in galactose-fed rats to obtain the amount of polyol accumulated.] […] In the present case the procedure of Hayman and Kinoshita was modified in that the final chromatography step was omitted in the preparation of the enzyme from bovine lens.

COc1ccc2c(C(=NC#N)N(C)CC(=O)O)cccc2c1C(F)(F)F [Example 4, N-[(Cyanoimino)[6-methoxy-5-(trifluoromethyl)-1-naphthalenyl]methyl]-N-methylglycine]
% lowering dulcitol accumulation in vivo, N (sciatic nerve) ([1]; 26 mg/kg/day p.o.): 30% | % lowering dulcitol accumulation in vivo, N (sciatic nerve) ([1]; 100 mg/kg/day p.o.): 61% | lowering of polyol accumulation compared with tolrestat (in words) ([1]; 100 mg/kg/day vs tolrestat at 6.4 mg/kg/day): comparable results | % lowering dulcitol accumulation in vivo, L (lens) ([2]; 26 mg/kg/day p.o.): 0% | % lowering dulcitol accumulation in vivo, L (lens) ([2]; 100 mg/kg/day p.o.): 0% | inhibition at 0.1 µM [3]: 80%

COc1ccc2c(C(=NS(=O)(=O)C(F)(F)F)N(C)CC(=O)O)cccc2c1C(F)(F)F [Example 5, N-[[6-Methoxy-5-(trifluoromethyl)-1-naphthalenyl][[(trifluoromethyl)sulfonyl]imino]methyl]-N-methylglycine]
% lowering dulcitol accumulation in vivo, N (sciatic nerve) ([1]; 56 mg/kg/day p.o.): 0% | % lowering dulcitol accumulation in vivo, L (lens) ([2]; 56 mg/kg/day p.o.): 0% | inhibition at 0.1 µM [3]: 69%

COc1ccc2c(C(=NS(=O)(=O)c3ccc(Br)cc3)N(C)CC(=O)O)cccc2c1C(F)(F)F [Example 6, N-[[[(4-Bromophenyl)sulfonyl]imino][6-methoxy-5-(trifluoromethyl)-1-naphthalenyl]methyl]-N-methylglycine]
% lowering dulcitol accumulation in vivo, N (sciatic nerve) ([1]; 55 mg/kg/day p.o.): 0% | % lowering dulcitol accumulation in vivo, L (lens) ([2]; 55 mg/kg/day p.o.): 0% | inhibition at 0.1 µM [3]: 5%

COc1ccc2c(C(=S)N(C)CC(=O)O)cccc2c1C(F)(F)F [tolrestat, N-[[6-methoxy-5-(trifluoromethyl)-1-naphthalenyl]thioxomethyl]-N-methylglycine, reference compound]
% lowering dulcitol accumulation in vivo, N (sciatic nerve) ([1]; 6.4 mg/kg/day p.o.): 50% | % lowering dulcitol accumulation in vivo, L (lens) ([2]; 6.4 mg/kg/day p.o.): 0%
